Measured values taken from publication PMC8329197, “Compounds targeting OSBPL7 increase ABCA1-dependent cholesterol efflux preserving kidney function in two models of kidney disease” (Nature Communications, 2021).
“And” between values parts separate entries of the source, which are not always exact repeats. Equal values may be shown once.

Assays:
[1] = tested on: Adriamycin (ADR)-induced nephropathy in Balb/c mice; assay: ADR nephropathy: kidney cortex lipids (cholesterol ester, total cholesterol, triglycerides, Oil-red O); assay type: in vivo, mouse
Experimental: OCT embedded kidney cortex samples were cryosectioned at 4 μm thickness and stained with Oil-Red O-isopropanol solution (Electron Microscopy Science, PA) diluted 6:4 in water, and then counterstained with Hematoxylin Harris Hg Free (VWR, PA). Sections were then evaluated using a light microscope (Olympus BX 41, Tokyo, Japan).
Snap frozen kidney cortex samples were homogenized in 2 mM potassium phosphate buffer, pH 7, (10 µl buffer/mg tissue) using a glass douncer on ice. 100 μl of the homogenate were mixed thoroughly with 1 ml of hexane:isopropanol (3:2;v:v) per volume of tissue homogenate. The aqueous (pellet) and organic (supernatant) phases were separated by centrifugation at 12,000 × g for 5 min. Pellets (aqueous phase) were dried, reconstituted in 8 M urea, 0.1% SDS, 0.1 M NaOH, and total proteins were quantified by the BCA method (Thermofisher). The organic phase was dried by exposure to nitrogen. Lipids were then reconstituted in 100 µl isopropanol:NP-40 (9:1;v:v). Triglyceride content was assayed using a colorimetric kit according to the manufacturer’s instructions (Cayman Chemical USA). Total cholesterol and CE content were assayed using an enzymatic fluorometric method. For total cholesterol measurement, extracts were diluted 1:100 in assay buffer (100 mM potassium phosphate, 50 mM NaCl, 5 mM cholic acid, 0.1% Triton […], pH 7.4) containing cholesterol oxidase (1 U/ml), cholesterol esterase (1 U/ml), horseradish peroxidase (1 U/ml), and Amplex Red (75 µM). The reactions were incubated at 37 °C for 30 min in a black opaque 96-well plate (Greiner) and fluorescence was measured in a microplate reader (Spectramax i3X, Molecular Devices) at 530 nm excitation and 580 emission.
For CE determination, 150 µl of the assay buffer described above, supplemented with bovine liver catalase (45 U/ml) and cholesterol oxidase (1 U/ml), was added to 25 μl of sample and incubated overnight at 37 °C to deplete free cholesterol leaving only cholesterol esters. Then, 75 µl of cholesterol ester detection reagent (1 U/ml cholesterol oxidase, 4 U/ml cholesterol esterase, 24 U/ml horseradish peroxidase, 300 µM Amplex Red) was added. The reaction was incubated at 37 °C for 30 min and the fluorescence signal was measured as described above. Internal standards included samples containing 1 mM of cholesterol and 5 μM of cholesterol oleate in order to verify the completeness of the enzymatic decomposition of free cholesterol as well as assay sensitivity and specificity.

[2] = tested on: Adriamycin (ADR)-induced nephropathy in Balb/c mice; assay: ADR nephropathy: liver total cholesterol, cholesterol esters, triglycerides; assay type: in vivo, mouse
[3] = tested on: Adriamycin (ADR)-induced nephropathy in Balb/c mice; assay: ADR nephropathy: WBC, hemoglobin, hematocrit, ALT, AST; assay type: in vivo, mouse; settings: ADR-induced nephropathy
[4] = tested on: Adriamycin (ADR)-induced nephropathy in Balb/c mice; assay: Adriamycin-induced nephropathy, main study: albumin/creatinine ratio and body weight
[5] = tested on: Adriamycin (ADR)-induced nephropathy in Balb/c mice; assay: Adriamycin-induced nephropathy, dose-finding pilot study: ACR and body weight time course; settings: ADR, 10 mg/Kg/day, individual mice, 10 mg/kg/day
[6] = 28 days treatment, 25th quartile
[7] = 28 days treatment, 75th quartile
[8] = 28 days treatment, group maximum
[9] = 28 days treatment, group median
[10] = 28 days treatment, group minimum
[11] = 28 days treatment, individual mouse values

Cc1oc(-c2cccc(C(F)(F)F)c2)nc1Cn1c(C)cc2cc(C(O)(C(F)(F)F)C(F)(F)F)ccc21 [Cpd C, reference compound]
KIDNEY CORTEX TOTAL CHOLESTEROL ([1]; ADR model, individual animals): 169.86 nmol Chol./mg protein and 129.15 nmol Chol./mg protein and 254.63 nmol Chol./mg protein and 268.95 nmol Chol./mg protein and 152.74 nmol Chol./mg protein and 180.44 nmol Chol./mg protein and 182.39 nmol Chol./mg protein and 272.02 nmol Chol./mg protein and 254.98 nmol Chol./mg protein | KIDNEY CORTEX TRIGLYCERIDES ([1]; ADR model, individual animals): 43.01 nmol Triglyceride /mg protein and 83.04 nmol Triglyceride /mg protein and 58.7 nmol Triglyceride /mg protein and 29.67 nmol Triglyceride /mg protein and 36.87 nmol Triglyceride /mg protein and 243.76 nmol Triglyceride /mg protein and 196.92 nmol Triglyceride /mg protein and 133.68 nmol Triglyceride /mg protein and 574.71 nmol Triglyceride /mg protein | Animals with higher triglyceride content in kidney cortexes ([1]; ADR, Cpd C 10 mg/Kg): about 30% | LIVER CHOLESTEROL ESTERS ([2]; ADR model, individual animals): 3.92 nmol CE/ mg protein and 1.48 nmol CE/ mg protein and 3.2 nmol CE/ mg protein and 3.1 nmol CE/ mg protein | LIVER TOTAL CHOLESTEROL ([2]; ADR model, individual animals): 132 nmol Cholesterol/ mg protein and 89 nmol Cholesterol/ mg protein and 311 nmol Cholesterol/ mg protein and 91 nmol Cholesterol/ mg protein | LIVER TRIGLICERIDES ([2]; ADR model, individual animals): 48.5 nmol Triglycerides/ mg protein and 45 nmol Triglycerides/ mg protein and 67 nmol Triglycerides/ mg protein and 56 nmol Triglycerides/ mg protein | Hepatic triglyceride content vs. vehicle-treated controls ([2]; ADR-challenged, 28 days): increased hepatic triglyceride content | ALT, Median (IQR) [3]: 146 (71-682) U/L | ALT, Range [3]: 68-838 U/L | AST, Median (IQR) [3]: 165 (104-371) U/L | AST, Range [3]: 90-433 U/L | HTC, Median (IQR) [3]: 55 (45-64) % | HTC, Range [3]: 43-65% | Hgb, Median (IQR) [3]: 13.3 g/dL | Hgb, Range [3]: 11 to 15.9 g/dL | WBC, Median (IQR) [3]: 6.2 (5.5-7.9) x103cells/µL | WBC, Range [3]: 5.4-8.3 x103cells/µL | ALT, QR(25) [3, 6]: 76.25 U/L | AST, QR(25) [3, 6]: 131.25 U/L | HTC, QR(25) [3, 6]: 46% | Hgb, QR(25) [3, 6]: 12.5 g/dL | WBC, QR(25) [3, 6]: 6.4 x 10^3 cells/ul | ALT, QR(75) [3, 7]: 369.25 U/L | AST, QR(75) [3, 7]: 246.25 U/L | HTC, QR(75) [3, 7]: 64% | Hgb, QR(75) [3, 7]: 15.4 g/dL | WBC, QR(75) [3, 7]: 10.3 x 10^3 cells/ul | ALT, Max [3, 8]: 838 U/L | AST, Max [3, 8]: 433 U/L | HTC, Max [3, 8]: 65% | Hgb, Max [3, 8]: 15.9 g/dL | WBC, Max [3, 8]: 11.6 x 10^3 cells/ul | ALT, Median [3, 9]: 146 U/L | AST, Median [3, 9]: 164.5 U/L | HTC, Median [3, 9]: 55% | Hgb, Median [3, 9]: 13.3 g/dL | WBC, Median [3, 9]: 6.7 x 10^3 cells/ul | ALT, Min [3, 10]: 68 U/L | AST, Min [3, 10]: 90 U/L | HTC, Min [3, 10]: 43% | Hgb, Min [3, 10]: 11 g/dL | WBC, Min [3, 10]: 5.4 x 10^3 cells/ul | Alanine Aminotransferase (ALT) [3, 11]: 213 U/dL and 68 U/dL and 79 U/dL and 838 U/dL | Aspartate Aminotransferase (AST) [3, 11]: 184 U/dL and 90 U/dL and 145 U/dL and 433 U/dL | Hematocrit HTC [3, 11]: 64% and 65% and 55% and 46% and 43% and 44% | White Blood Cells WBC [3, 11]: 10.3 x 10^3 cells/ul and 6.7 x 10^3 cells/ul and 6.5 x 10^3 cells/ul and 5.9 x 10^3 cells/ul and 5.4 x 10^3 cells/ul and 8.3 x 10^3 cells/ul and 6.4 x 10^3 cells/ul and 11.6 x 10^3 cells/ul | Effect on weight loss ([4]; 28 days after ADR): no significant effect to prevent weight loss | ACR, median ([4]; 28 days after ADR, Cpd A 30, Cpd G 100, Cpd C 10 mg/Kg, group median): 6.591 mg albumin/mg creatinine | Reduction in ACR ([4]; Cpd C 10 mg/Kg, 28 days): more variable reduction in ACR | Weight (d28) ([4]; animal weight when therapy finished, single animals): 19 and 13 and 20 and 16 and 22 and 17 and 18 | Weight Change (as % of weight at day 0), Median ([4]; day 28 after ADR, Cpd A 30, Cpd G 100, Cpd C 10 mg/Kg): -5% | Weight Change (as % of weight at day 0) ([4]; day 28 after ADR, Cpd A 30, Cpd G 100, Cpd C 10 mg/Kg, single animals): 5.3% and 5.6% and -15.8% and 4.8% and -15% and 0% and -10% and -5% and -27.8% | ACR values (mg Albumin / mg Creatinine) ([4]; spot urine 28 days after ADR, oral daily Cpd A 30, Cpd G 100, Cpd C 10 mg/Kg, single animals): 97.01 mg Albumin / mg Creatinine and 0.196 mg Albumin / mg Creatinine and 5.6 mg Albumin / mg Creatinine and 6.591 mg Albumin / mg Creatinine and 5.609 mg Albumin / mg Creatinine and 28.989 mg Albumin / mg Creatinine and 87.25 mg Albumin / mg Creatinine and 19.88 mg Albumin / mg Creatinine and 5.463 mg Albumin / mg Creatinine | Body Weight ([5]; 0 days after inj): 20 grams and 18 grams (2×) and 19 grams (2×) | ACR in spot urine ([5]; 7 days after inj): 0.033 mg Albumin/ mg Creatinine in urine and 0.087 mg Albumin/ mg Creatinine in urine and 0.021 mg Albumin/ mg Creatinine in urine and 0.039 mg Albumin/ mg Creatinine in urine and 0.361 mg Albumin/ mg Creatinine in urine | Body Weight ([5]; 7 days after inj): 19 grams (2×) and 17 grams and 18 grams (2×) | ACR in spot urine ([5]; 14 days after inj): 43.998 mg Albumin/ mg Creatinine in urine and 97.732 mg Albumin/ mg Creatinine in urine and 170.881 mg Albumin/ mg Creatinine in urine and 0.773 mg Albumin/ mg Creatinine in urine and 96.907 mg Albumin/ mg Creatinine in urine | Body Weight ([5]; 14 days after inj): 18 grams (2×) and 15 grams and 17 grams (2×) | ACR in spot urine ([5]; 21 days after inj): 110.345 mg Albumin/ mg Creatinine in urine and 164.518 mg Albumin/ mg Creatinine in urine and 91.2 mg Albumin/ mg Creatinine in urine and 9.219 mg Albumin/ mg Creatinine in urine and 93.57 mg Albumin/ mg Creatinine in urine | Body Weight ([5]; 21 days after inj): 18 grams (2×) and 13 grams and 19 grams and 16 grams | ACR in spot urine ([5]; 28 days after inj): 28.989 mg Albumin/ mg Creatinine in urine and 87.25 mg Albumin/ mg Creatinine in urine and 19.88 mg Albumin/ mg Creatinine in urine and 5.463 mg Albumin/ mg Creatinine in urine and 97.01 mg Albumin/ mg Creatinine in urine | Body Weight ([5]; 28 days after inj): 19 grams (2×) and 13 grams and 20 grams and 16 grams
